Test results from the kinase profiling compilation of Christmann-Franck et al. (2016).

How the values were obtained:
Assay in all cases: KINOMEscan competition binding
Details in all cases: compound 10.0 µM
AKT3 (human) = AKT3 (human) (UniProt Q9Y243)
AURKB (human) = AURKB (human) (UniProt Q96GD4)
CAMK1G (human) = CAMK1G (human) (UniProt Q96NX5)
CAMK2D (human) = CAMK2D (human) (UniProt Q13557)
CDK15 (human) = CDK15 (human) (UniProt Q96Q40)
CDK5 (human) = CDK5 (human) (UniProt Q00535)
CDKL2 (human) = CDKL2 (human) (UniProt Q92772)
CLK4 (human) = CLK4 (human) (UniProt Q9HAZ1)
CSNK1E (human) = CSNK1E (human) (UniProt P49674)
CSNK2A1 (human) = CSNK2A1 (human) (UniProt P68400)
DDR1 (human) = DDR1 (human) (UniProt Q08345)
EPHA6 (human) = EPHA6 (human) (UniProt Q9UF33)
FES (human) = FES (human) (UniProt P07332)
FGFR1 (human) = FGFR1 (human) (UniProt P11362)
HIPK4 (human) = HIPK4 (human) (UniProt Q8NE63)
IKBKB (human) = IKBKB (human) (UniProt O14920)
MAP3K15 (human) = MAP3K15 (human) (UniProt Q6ZN16)
MAP3K2 (human) = MAP3K2 (human) (UniProt Q9Y2U5)
MKNK2 (human) = MKNK2 (human) (UniProt Q9HBH9)
MST4 (human) = MST4 (human) (UniProt Q9P289)
MUSK (human) = MUSK (human) (UniProt O15146)
NEK2 (human) = NEK2 (human) (UniProt P51955)
NTRK3 (human) = NTRK3 (human) (UniProt Q16288)
NUAK2 (human) = NUAK2 (human) (UniProt Q9H093)
PAK1 (human) = PAK1 (human) (UniProt Q13153)
PIK3C2B (human) = PIK3C2B (human) (UniProt O00750)
[1] = test system: PIK3CA (human), P42336 [M1043I]
PIK3CB (human) = PIK3CB (human) (UniProt P42338)
PKN1 (human) = PKN1 (human) (UniProt Q16512)
PKN2 (human) = PKN2 (human) (UniProt Q16513)
PRKG1 (human) = PRKG1 (human) (UniProt Q13976)
PTK2B (human) = PTK2B (human) (UniProt Q14289)
RET (human) = RET (human) (UniProt P07949)
STK24 (human) = STK24 (human) (UniProt Q9Y6E0)
STK3 (human) = STK3 (human) (UniProt Q13188)
STK32B (human) = STK32B (human) (UniProt Q9NY57)
TAOK3 (human) = TAOK3 (human) (UniProt Q9H2K8)
TNK1 (human) = TNK1 (human) (UniProt Q13470)
TSSK1B (human) = TSSK1B (human) (UniProt Q9BXA7)
TTK (human) = TTK (human) (UniProt P33981)
ULK2 (human) = ULK2 (human) (UniProt Q8IYT8)
DYRK2 (human) = DYRK2 (human) (UniProt Q92630)

Chain of MST4 (human) (Q9P289 whole entry, looked up): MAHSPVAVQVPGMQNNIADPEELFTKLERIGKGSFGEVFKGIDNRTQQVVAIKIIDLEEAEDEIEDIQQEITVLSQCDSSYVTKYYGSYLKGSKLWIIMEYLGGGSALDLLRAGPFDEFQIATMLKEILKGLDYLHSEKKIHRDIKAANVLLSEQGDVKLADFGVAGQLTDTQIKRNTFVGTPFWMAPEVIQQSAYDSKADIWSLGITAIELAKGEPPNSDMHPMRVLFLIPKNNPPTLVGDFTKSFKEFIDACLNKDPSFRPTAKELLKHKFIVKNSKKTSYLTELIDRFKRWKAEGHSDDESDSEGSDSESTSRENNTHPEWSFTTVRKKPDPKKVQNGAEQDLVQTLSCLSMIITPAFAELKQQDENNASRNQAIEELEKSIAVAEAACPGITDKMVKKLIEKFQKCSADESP
Chain of AURKB (human) (Q96GD4 whole entry, looked up): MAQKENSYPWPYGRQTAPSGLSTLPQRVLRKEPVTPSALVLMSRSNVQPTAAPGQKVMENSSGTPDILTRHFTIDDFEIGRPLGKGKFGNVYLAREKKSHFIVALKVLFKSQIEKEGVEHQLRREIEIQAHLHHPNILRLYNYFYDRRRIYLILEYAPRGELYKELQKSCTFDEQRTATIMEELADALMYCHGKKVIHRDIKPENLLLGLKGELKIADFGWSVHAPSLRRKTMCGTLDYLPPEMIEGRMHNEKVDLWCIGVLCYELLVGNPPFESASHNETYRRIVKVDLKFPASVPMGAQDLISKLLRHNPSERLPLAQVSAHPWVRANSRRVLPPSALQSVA
Chain of NEK2 (human) (P51955 whole entry, looked up): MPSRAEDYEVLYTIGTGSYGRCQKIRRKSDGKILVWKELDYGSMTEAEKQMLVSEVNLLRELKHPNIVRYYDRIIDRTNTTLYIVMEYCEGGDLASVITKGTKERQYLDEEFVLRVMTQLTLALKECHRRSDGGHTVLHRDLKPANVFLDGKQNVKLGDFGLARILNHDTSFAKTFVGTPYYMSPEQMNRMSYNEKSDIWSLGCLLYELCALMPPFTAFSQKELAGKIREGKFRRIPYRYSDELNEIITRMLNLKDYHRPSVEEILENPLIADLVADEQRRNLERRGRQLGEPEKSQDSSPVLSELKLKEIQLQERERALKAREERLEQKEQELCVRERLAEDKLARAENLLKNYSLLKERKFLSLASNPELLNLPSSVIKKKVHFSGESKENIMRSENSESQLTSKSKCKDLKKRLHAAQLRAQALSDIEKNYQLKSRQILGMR
Chain of IKBKB (human) (O14920 whole entry, looked up): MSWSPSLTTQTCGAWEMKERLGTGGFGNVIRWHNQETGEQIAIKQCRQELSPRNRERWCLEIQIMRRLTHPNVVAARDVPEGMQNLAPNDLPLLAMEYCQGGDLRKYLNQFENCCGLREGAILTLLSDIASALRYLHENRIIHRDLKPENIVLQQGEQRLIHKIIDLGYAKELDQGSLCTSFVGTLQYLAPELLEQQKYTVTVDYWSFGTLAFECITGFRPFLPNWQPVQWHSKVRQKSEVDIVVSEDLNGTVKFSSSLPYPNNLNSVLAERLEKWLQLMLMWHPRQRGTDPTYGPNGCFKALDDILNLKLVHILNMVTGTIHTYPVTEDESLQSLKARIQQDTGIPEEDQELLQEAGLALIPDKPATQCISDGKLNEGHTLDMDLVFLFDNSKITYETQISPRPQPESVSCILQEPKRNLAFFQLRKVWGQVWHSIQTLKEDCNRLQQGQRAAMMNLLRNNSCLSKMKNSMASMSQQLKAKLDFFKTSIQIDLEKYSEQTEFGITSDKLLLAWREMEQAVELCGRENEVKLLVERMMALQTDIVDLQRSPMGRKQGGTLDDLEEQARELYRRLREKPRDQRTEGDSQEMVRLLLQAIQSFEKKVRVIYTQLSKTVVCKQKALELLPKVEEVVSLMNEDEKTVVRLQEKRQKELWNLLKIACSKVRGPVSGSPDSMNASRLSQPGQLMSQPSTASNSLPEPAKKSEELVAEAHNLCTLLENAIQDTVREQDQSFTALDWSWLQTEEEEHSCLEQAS
Chain of RET (human) (P07949 whole entry, looked up): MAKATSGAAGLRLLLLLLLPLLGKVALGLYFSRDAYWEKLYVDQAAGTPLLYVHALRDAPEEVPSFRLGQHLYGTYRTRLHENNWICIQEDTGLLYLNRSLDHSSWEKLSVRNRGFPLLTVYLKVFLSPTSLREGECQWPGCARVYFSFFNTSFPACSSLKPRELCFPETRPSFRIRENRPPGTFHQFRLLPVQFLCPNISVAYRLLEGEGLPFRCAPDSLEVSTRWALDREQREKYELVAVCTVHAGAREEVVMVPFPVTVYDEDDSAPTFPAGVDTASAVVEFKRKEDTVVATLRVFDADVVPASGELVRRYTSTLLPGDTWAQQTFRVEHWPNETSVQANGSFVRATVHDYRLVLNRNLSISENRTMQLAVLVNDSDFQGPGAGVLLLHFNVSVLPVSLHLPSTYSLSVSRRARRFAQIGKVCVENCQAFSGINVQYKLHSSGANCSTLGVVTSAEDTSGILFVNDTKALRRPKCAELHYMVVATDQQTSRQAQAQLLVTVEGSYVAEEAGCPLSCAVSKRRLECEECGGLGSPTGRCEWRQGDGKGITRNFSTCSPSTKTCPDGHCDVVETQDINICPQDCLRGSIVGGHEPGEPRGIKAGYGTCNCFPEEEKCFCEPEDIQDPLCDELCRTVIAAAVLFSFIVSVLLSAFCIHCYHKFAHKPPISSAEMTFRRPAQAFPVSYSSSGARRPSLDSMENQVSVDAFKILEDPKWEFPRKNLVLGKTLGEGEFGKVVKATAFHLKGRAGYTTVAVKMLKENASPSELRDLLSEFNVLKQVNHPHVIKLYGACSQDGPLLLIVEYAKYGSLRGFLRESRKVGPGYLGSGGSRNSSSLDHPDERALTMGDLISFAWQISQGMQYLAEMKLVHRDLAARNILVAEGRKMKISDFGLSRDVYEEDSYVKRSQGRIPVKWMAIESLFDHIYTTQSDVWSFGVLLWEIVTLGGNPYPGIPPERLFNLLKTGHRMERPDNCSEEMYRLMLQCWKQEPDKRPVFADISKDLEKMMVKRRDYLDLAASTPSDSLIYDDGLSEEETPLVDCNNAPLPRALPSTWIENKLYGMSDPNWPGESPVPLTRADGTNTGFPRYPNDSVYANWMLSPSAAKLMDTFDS
Chain of PKN1 (human) (Q16512 whole entry, looked up): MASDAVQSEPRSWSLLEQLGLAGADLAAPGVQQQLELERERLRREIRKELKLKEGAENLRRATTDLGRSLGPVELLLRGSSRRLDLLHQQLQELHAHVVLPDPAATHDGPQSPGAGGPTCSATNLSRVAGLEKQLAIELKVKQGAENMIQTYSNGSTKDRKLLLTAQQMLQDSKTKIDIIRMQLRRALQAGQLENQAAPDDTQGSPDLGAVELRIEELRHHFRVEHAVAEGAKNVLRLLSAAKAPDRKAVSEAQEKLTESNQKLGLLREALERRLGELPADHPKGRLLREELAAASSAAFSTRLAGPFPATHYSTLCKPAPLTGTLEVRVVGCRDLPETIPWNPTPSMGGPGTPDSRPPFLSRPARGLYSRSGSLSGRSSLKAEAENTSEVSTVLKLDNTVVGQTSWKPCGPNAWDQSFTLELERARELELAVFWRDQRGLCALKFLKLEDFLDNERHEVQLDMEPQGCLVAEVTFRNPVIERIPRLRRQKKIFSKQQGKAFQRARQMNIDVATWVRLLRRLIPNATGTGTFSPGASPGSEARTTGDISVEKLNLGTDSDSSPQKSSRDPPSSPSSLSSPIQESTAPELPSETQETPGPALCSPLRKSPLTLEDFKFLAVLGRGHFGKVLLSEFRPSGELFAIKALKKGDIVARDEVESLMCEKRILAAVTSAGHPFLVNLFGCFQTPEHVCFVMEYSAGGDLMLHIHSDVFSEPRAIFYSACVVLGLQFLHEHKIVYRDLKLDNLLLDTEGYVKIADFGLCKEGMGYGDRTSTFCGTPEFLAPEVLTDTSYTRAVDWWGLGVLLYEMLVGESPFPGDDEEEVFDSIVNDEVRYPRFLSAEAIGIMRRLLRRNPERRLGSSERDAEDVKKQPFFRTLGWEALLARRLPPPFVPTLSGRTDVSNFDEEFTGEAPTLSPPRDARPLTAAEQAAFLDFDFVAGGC
Chain of STK3 (human) (Q13188 whole entry, looked up): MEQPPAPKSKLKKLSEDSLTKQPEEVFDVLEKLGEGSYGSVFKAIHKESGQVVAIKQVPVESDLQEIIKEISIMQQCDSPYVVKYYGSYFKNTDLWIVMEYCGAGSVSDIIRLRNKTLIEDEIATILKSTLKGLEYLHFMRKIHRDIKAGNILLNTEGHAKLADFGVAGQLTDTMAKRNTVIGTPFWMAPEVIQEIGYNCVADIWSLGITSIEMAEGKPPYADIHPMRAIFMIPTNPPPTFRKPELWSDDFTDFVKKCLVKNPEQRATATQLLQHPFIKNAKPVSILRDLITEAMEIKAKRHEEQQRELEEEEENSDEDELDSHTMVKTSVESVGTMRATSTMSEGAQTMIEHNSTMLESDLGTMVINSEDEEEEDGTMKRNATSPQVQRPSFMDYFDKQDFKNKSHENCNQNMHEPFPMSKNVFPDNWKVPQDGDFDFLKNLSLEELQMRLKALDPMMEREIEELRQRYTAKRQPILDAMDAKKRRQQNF
Chain of AKT3 (human) (Q9Y243 whole entry, looked up): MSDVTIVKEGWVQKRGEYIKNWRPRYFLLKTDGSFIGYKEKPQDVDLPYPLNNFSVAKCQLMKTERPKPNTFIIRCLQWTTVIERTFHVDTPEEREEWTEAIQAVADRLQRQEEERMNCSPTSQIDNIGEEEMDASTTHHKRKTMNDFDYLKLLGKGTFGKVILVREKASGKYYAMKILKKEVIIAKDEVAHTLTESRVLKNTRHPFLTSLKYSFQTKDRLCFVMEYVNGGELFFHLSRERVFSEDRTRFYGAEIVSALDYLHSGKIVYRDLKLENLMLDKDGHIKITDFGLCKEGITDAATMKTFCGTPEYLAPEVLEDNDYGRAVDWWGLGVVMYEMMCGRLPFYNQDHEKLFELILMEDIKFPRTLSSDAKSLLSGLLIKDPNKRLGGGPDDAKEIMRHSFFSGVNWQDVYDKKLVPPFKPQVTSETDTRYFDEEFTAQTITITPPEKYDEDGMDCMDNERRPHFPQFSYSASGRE

`O=C1Nc2cc(Br)ccc2/C1=C1/Nc2ccccc2/C1=N\O` gave a kinase still bound, per cent of control (AKT3 (human)) of 100%, a kinase still bound, per cent of control (AURKB (human)) of 2.8% and a kinase still bound, per cent of control (CAMK1G (human)) of 42%. For the same compound, the kinase still bound, per cent of control (CAMK2D (human)) was 2.1%, the kinase still bound, per cent of control (CDK15 (human)) was 53% and the kinase still bound, per cent of control (CDK5 (human)) was 9.5%. For the same compound, the kinase still bound, per cent of control (CDKL2 (human)) was 6.1%, the kinase still bound, per cent of control (CLK4 (human)) was 99% and the kinase still bound, per cent of control (CSNK1E (human)) was 18%. For the same compound, the kinase still bound, per cent of control (CSNK2A1 (human)) was 6.2%, the kinase still bound, per cent of control (DDR1 (human)) was 55% and the kinase still bound, per cent of control (EPHA6 (human)) was 34%. For the same compound, the kinase still bound, per cent of control (FES (human)) was 100%, the kinase still bound, per cent of control (FGFR1 (human)) was 18% and the kinase still bound, per cent of control (HIPK4 (human)) was 3%. For the same compound, the kinase still bound, per cent of control (IKBKB (human)) was 78%, the kinase still bound, per cent of control (MAP3K15 (human)) was 43% and the kinase still bound, per cent of control (MAP3K2 (human)) was 56%. It also gave a kinase still bound, per cent of control (MKNK2 (human)) of 28%, a kinase still bound, per cent of control (MST4 (human)) of 35% and a kinase still bound, per cent of control (MUSK (human)) of 83%. It also gave a kinase still bound, per cent of control (NEK2 (human)) of 82%, a kinase still bound, per cent of control (NTRK3 (human)) of 16% and a kinase still bound, per cent of control (NUAK2 (human)) of 39%. For the same compound, the kinase still bound, per cent of control (PAK1 (human)) was 68%, the kinase still bound, per cent of control (PIK3C2B (human)) was 100% and the kinase still bound, per cent of control [1] was 100%. The kinase still bound, per cent of control (PIK3CB (human)) was 88%, the kinase still bound, per cent of control (PKN1 (human)) was 79% and the kinase still bound, per cent of control (PKN2 (human)) was 29%. For the same compound, the kinase still bound, per cent of control (PRKG1 (human)) was 100%, the kinase still bound, per cent of control (PTK2B (human)) was 9.3% and the kinase still bound, per cent of control (RET (human)) was 0%. It also gave a kinase still bound, per cent of control (STK24 (human)) of 12%, a kinase still bound, per cent of control (STK3 (human)) of 0% and a kinase still bound, per cent of control (STK32B (human)) of 100%. The kinase still bound, per cent of control (TAOK3 (human)) was 71%, the kinase still bound, per cent of control (TNK1 (human)) was 16% and the kinase still bound, per cent of control (TSSK1B (human)) was 100%. For the same compound, the kinase still bound, per cent of control (TTK (human)) was 3.8% and the kinase still bound, per cent of control (ULK2 (human)) was 35%.
`Cc1cnc(-c2cnc(NCCNc3ccc(C#N)cn3)nc2-c2ccc(Cl)cc2Cl)[nH]1` was tested, and the kinase still bound, per cent of control (AKT3 (human)) was 100%, the kinase still bound, per cent of control (AURKB (human)) was 94% and the kinase still bound, per cent of control (CAMK1G (human)) was 100%. For the same compound, the kinase still bound, per cent of control (CAMK2D (human)) was 100%, the kinase still bound, per cent of control (CDK15 (human)) was 95% and the kinase still bound, per cent of control (CDK5 (human)) was 67%. For the same compound, the kinase still bound, per cent of control (CDKL2 (human)) was 3.8%, the kinase still bound, per cent of control (CLK4 (human)) was 62% and the kinase still bound, per cent of control (CSNK1E (human)) was 76%. For the same compound, the kinase still bound, per cent of control (CSNK2A1 (human)) was 65%, the kinase still bound, per cent of control (DDR1 (human)) was 100% and the kinase still bound, per cent of control (DYRK2 (human)) was 68%. It also gave a kinase still bound, per cent of control (EPHA6 (human)) of 100%, a kinase still bound, per cent of control (FES (human)) of 100% and a kinase still bound, per cent of control (FGFR1 (human)) of 100%. The kinase still bound, per cent of control (HIPK4 (human)) was 43%, the kinase still bound, per cent of control (IKBKB (human)) was 80% and the kinase still bound, per cent of control (MAP3K15 (human)) was 100%. The kinase still bound, per cent of control (MAP3K2 (human)) was 93%, the kinase still bound, per cent of control (MKNK2 (human)) was 82% and the kinase still bound, per cent of control (MST4 (human)) was 82%. For the same compound, the kinase still bound, per cent of control (MUSK (human)) was 100%, the kinase still bound, per cent of control (NEK2 (human)) was 72% and the kinase still bound, per cent of control (NTRK3 (human)) was 100%. It also gave a kinase still bound, per cent of control (NUAK2 (human)) of 94%, a kinase still bound, per cent of control (PAK1 (human)) of 100% and a kinase still bound, per cent of control (PIK3C2B (human)) of 91%. The kinase still bound, per cent of control [1] was 100%, the kinase still bound, per cent of control (PIK3CB (human)) was 100% and the kinase still bound, per cent of control (PKN1 (human)) was 100%. The kinase still bound, per cent of control (PRKG1 (human)) was 100%, the kinase still bound, per cent of control (PTK2B (human)) was 100% and the kinase still bound, per cent of control (RET (human)) was 100%. It also gave a kinase still bound, per cent of control (STK24 (human)) of 97%, a kinase still bound, per cent of control (STK3 (human)) of 100% and a kinase still bound, per cent of control (STK32B (human)) of 100%. It also gave a kinase still bound, per cent of control (TAOK3 (human)) of 13%, a kinase still bound, per cent of control (TNK1 (human)) of 80% and a kinase still bound, per cent of control (TSSK1B (human)) of 94%. The kinase still bound, per cent of control (TTK (human)) was 86% and the kinase still bound, per cent of control (ULK2 (human)) was 96%.
